Data published in US11325889B2, “Substituted 3-((3-aminophenyl)amino)piperidine-2,6-dione compounds, compositions thereof, and methods of treatment therewith” (Celgene Corporation, priority 2018, dated 2022).

Target: T1, AR protein in VCaP cells (Homo sapiens, UniProt P10275)
T1 construct: endogenous in cells; host or cells: VCaP cells
T1 sequence (P10275 1-920): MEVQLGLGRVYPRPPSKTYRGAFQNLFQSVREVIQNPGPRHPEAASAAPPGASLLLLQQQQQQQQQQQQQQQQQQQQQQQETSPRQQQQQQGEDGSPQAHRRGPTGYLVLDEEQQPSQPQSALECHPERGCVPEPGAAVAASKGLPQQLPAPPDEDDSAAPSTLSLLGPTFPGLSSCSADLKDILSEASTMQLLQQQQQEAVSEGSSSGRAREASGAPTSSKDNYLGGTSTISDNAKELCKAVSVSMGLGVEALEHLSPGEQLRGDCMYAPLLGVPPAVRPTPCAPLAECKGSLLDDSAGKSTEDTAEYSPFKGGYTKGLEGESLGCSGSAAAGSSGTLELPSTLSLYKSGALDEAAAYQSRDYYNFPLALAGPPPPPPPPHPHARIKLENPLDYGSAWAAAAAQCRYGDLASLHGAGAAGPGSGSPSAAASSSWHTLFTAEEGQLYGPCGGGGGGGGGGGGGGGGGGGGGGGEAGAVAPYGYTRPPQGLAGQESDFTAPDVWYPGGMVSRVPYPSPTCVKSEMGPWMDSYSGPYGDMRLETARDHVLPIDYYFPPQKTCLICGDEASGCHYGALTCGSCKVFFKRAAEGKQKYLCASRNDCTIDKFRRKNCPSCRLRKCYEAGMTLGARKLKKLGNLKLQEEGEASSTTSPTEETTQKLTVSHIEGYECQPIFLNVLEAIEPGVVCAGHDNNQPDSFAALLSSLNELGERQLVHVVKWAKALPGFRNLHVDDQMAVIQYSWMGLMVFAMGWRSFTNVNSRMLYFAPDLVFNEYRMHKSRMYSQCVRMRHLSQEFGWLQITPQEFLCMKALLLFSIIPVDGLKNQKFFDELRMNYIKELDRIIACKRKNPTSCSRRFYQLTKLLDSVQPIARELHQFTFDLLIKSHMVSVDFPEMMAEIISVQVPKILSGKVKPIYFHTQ
Experiment: VCAP AR Degradation Assay (AR ELISA, 24 h)
Type: cell-based
Conditions: for Y (lowest measured AR level normalized to DMSO control): AR degradation efficiency; for DC50: concentration of compound when AR level = 50% of DMSO control, read-out: DC50
Protocol: VCAP AR Degradation Assay.
Test compounds were pre-dispensed into a Corning CellBind 96-well clear bottom plate (Cat #3300) using an acoustic dispenser to make a 10-point concentration series at 1:3 dilution for each compound. The final top concentration of each compound was […]. DMSO at a final concentration of 0.1% was used as a control. VCaP cells cultured in DMEM with 8% fetal bovine serum (FBS) were seeded at 50K cells per well in a 200 μL volume into the compound plate and incubated at 37° C. in a CO2 incubator for 24 h. The medium was carefully removed from the cells and the plate was placed on ice. One hundred […] of ice-cold 1× cell lysis buffer from Cell Signaling Technologies (Cat #9803) was added to each well of the cells and the plate was incubated at 4° C. on a shaker for 1 h. Fifteen […] of cell lysate was used for AR ELISA detection using a PathScan Total Sandwich AR ELISA kit (Cell Signaling Technology, Cat #12580). AR levels in compound-treated wells were normalized to that of DMSO control and expressed as percent of control (PoC) (y). A Four Parameter Logistic Model (Sigmoidal Dose-Response Model) was used to determine the compound's DC50, and EC50, using the following equation: y=(A+((B−A)/(1+((C/x)^D)))) • A=YMin (lowest AR level normalized to DMSO control in response to compound • treatment, as determined by curve fit) • B=YMax (maximum AR level as determined by curve fit) • C=EC50 • D=Hill Slope • x=compound concentration • EC50=the concentration of compound when y=(YMax−YMin)/2 • DC50=the concentration of the compound when y=50% of DMSO control (50% AR degradation) • y=AR protein level normalized to DMSO control
The lowest measured AR level normalized to DMSO control in response to compound treatment, termed Y value, was used to characterize the compound-mediated AR degradation efficiency.

CCc1cc(N2C(=S)N(c3cnc(C#N)c(C(F)(F)F)c3)C(=O)C2(C)C)ccc1OC1CCN(CC(=O)Nc2cc(NC3CCC(=O)NC3=O)ccc2F)CC1 (centres unmarked) [Cmpd 52, 2-(4-(4-(3-(6-cyano-5-(trifluoromethyl)pyridin-3-yl)-5,5-dimethyl-4-oxo-2-thioxoimidazolidin-1-yl)-2-ethylphenoxy)piperidin-1-yl)-N-(5-(2,6-dioxopiperidin-3-ylamino)-2-fluorophenyl)acetamide]
Y (lowest measured AR level normalized to DMSO control): *** (35%<Y<50%)
DC50: 100 to 500 nM

CCc1cc(N2C(=S)N(c3cnc(C#N)c(C(F)(F)F)c3)C(=O)C2(C)C)ccc1OCCC1CCN([C@@H](C)C(=O)Nc2cc(Cl)cc(NC3CCC(=O)NC3=O)c2)CC1 (stereo partly drawn) [Cmpd 23, (2S)-N-(3-chloro-5-(2,6-dioxopiperidin-3-ylamino)phenyl)-2-(4-(2-(4-(3-(6-cyano-5-(trifluoromethyl)pyridin-3-yl)-5,5-dimethyl-4-oxo-2-thioxoimidazolidin-1-yl)-2-ethylphenoxy)ethyl)piperidin-1-yl)propanamide]
Y (lowest measured AR level normalized to DMSO control): * (0<Y<=25%)
DC50: < 100 nM

CCc1cc(N2C(=S)N(c3ccc(C#N)c(C(F)(F)F)c3)C(=O)C2(C)C)ccc1OCC[C@@H]1CCN(CC(=O)Nc2cccc(NC3CCC(=O)NC3=O)c2)[C@H](C)C1 (stereo partly drawn) [Cmpd 71, 2-((2R,4R)-4-(2-(4-(3-(4-cyano-3-(trifluoromethyl)phenyl)-5,5-dimethyl-4-oxo-2-thioxoimidazolidin-1-yl)-2-ethylphenoxy)ethyl)-2-methylpiperidin-1-yl)-N-(3-(2,6-dioxopiperidin-3-ylamino)phenyl)acetamide]
Y (lowest measured AR level normalized to DMSO control): * (0<Y<=25%)
DC50: < 100 nM

CCc1cc(N2C(=S)N(c3cnc(C#N)c(C(F)(F)F)c3)C(=O)C23CCC3)ccc1OCC[C@H]1CCN(CC(=O)Nc2cccc(NC3CCC(=O)NC3=O)c2)C(C)(C)C1 (stereo partly drawn) [Cmpd 55, 2-((S)-4-(2-(4-(7-(6-cyano-5-(trifluoromethyl)pyridin-3-yl)-8-oxo-6-thioxo-5,7-diazaspiro[3.4]octan-5-yl)-2-ethylphenoxy)ethyl)-2,2-dimethylpiperidin-1-yl)-N-(3-(2,6-dioxopiperidin-3-ylamino)phenyl)acetamide]
Y (lowest measured AR level normalized to DMSO control): * (0<Y<=25%)
DC50: 100 to 500 nM

CCc1cc(N2C(=S)N(c3ccc(C#N)c(C(F)(F)F)c3)C(=O)C2(C)C)ccc1OC1CCN(CC(=O)Nc2cccc(NC3CCC(=O)NC3=O)c2)CC1 (centres unmarked) [Cmpd 50, 2-(4-(4-(3-(4-cyano-3-(trifluoromethyl)phenyl)-5,5-dimethyl-4-oxo-2-thioxoimidazolidin-1-yl)-2-ethylphenoxy)piperidin-1-yl)-N-(3-(2,6-dioxopiperidin-3-ylamino)phenyl)acetamide]
Y (lowest measured AR level normalized to DMSO control): ** (25%<Y<=35%)
DC50: 100 to 500 nM

CCc1cc(N2C(=S)N(c3ccc(C#N)c(C(F)(F)F)c3)C(=O)C23CCC3)ccc1OCCC1CCN([C@@H](C)C(=O)Nc2cc(Cl)cc(NC3CCC(=O)NC3=O)c2)CC1 (stereo partly drawn) [Cmpd 32, (2S)-N-(3-chloro-5-(2,6-dioxopiperidin-3-ylamino)phenyl)-2-(4-(2-(4-(7-(4-cyano-3-(trifluoromethyl)phenyl)-8-oxo-6-thioxo-5,7-diazaspiro[3.4]octan-5-yl)-2-ethylphenoxy)ethyl)piperidin-1-yl)propanamide]
Y (lowest measured AR level normalized to DMSO control): ** (25%<Y<=35%)
DC50: 100 to 500 nM

CCc1cc(N2C(=S)N(c3cnc(C#N)c(C(F)(F)F)c3)C(=O)C2(C)C)ccc1OCC1CCN(CC(=O)Nc2cccc(NC3CCC(=O)NC3=O)c2)CC1 (centres unmarked) [Cmpd 80, 2-(4-((4-(3-(6-cyano-5-(trifluoromethyl)pyridin-3-yl)-5,5-dimethyl-4-oxo-2-thioxoimidazolidin-1-yl)-2-ethylphenoxy)methyl)piperidin-1-yl)-N-(3-(2,6-dioxopiperidin-3-ylamino)phenyl)acetamide]
Y (lowest measured AR level normalized to DMSO control): ** (25%<Y<=35%)
DC50: < 100 nM

CC(F)(F)c1cc(N2C(=S)N(c3cnc(C#N)c(C(F)(F)F)c3)C(=O)C2(C)C)ccc1OCCC1CCN(CC(=O)Nc2cc(F)cc(NC3CCC(=O)NC3=O)c2)CC1 (centres unmarked) [Cmpd 22, 2-(4-(2-(4-(3-(6-cyano-5-(trifluoromethyl)pyridin-3-yl)-5,5-dimethyl-4-oxo-2-thioxoimidazolidin-1-yl)-2-(1,1-difluoroethyl)phenoxy)ethyl)piperidin-1-yl)-N-(3-(2,6-dioxopiperidin-3-ylamino)-5-fluorophenyl)acetamide]
Y (lowest measured AR level normalized to DMSO control): * (0<Y<=25%)
DC50: < 100 nM

CCc1cc(N2C(=S)N(c3ccc(C#N)c(C(F)(F)F)c3)C(=O)C23CCC3)ccc1OCCC1CCN([C@H](C)C(=O)Nc2cc(NC3CCC(=O)NC3=O)ccc2F)CC1 (stereo partly drawn) [Cmpd 75, (2R)-2-(4-(2-(4-(7-(4-cyano-3-(trifluoromethyl)phenyl)-8-oxo-6-thioxo-5,7-diazaspiro[3.4]octan-5-yl)-2-ethylphenoxy)ethyl)piperidin-1-yl)-N-(5-(2,6-dioxopiperidin-3-ylamino)-2-fluorophenyl)propanamide]
Y (lowest measured AR level normalized to DMSO control): ** (25%<Y<=35%)
DC50: 100 to 500 nM

CC1(C)C(=O)N(c2ccc(C#N)c(C(F)(F)F)c2)C(=S)N1c1ccc(OCCC2CCN(CC(=O)Nc3cc(Cl)cc(NC4CCC(=O)NC4=O)c3)CC2)c(F)c1 (centres unmarked) [Cmpd 10, N-(3-chloro-5-(2,6-dioxopiperidin-3-ylamino)phenyl)-2-(4-(2-(4-(3-(4-cyano-3-(trifluoromethyl)phenyl)-5,5-dimethyl-4-oxo-2-thioxoimidazolidin-1-yl)-2-fluorophenoxy)ethyl)piperidin-1-yl)acetamide]
Y (lowest measured AR level normalized to DMSO control): ** (25%<Y<=35%)
DC50: 100 to 500 nM

CC1(C)C(=O)N(c2ccc(C#N)c(C(F)(F)F)c2)C(=S)N1c1ccc(OCCC2CCN(CC(=O)Nc3cccc(NC4CCC(=O)NC4=O)c3)CC2)c(F)c1 (centres unmarked) [Cmpd 3, 2-(4-(2-(4-(3-(4-cyano-3-(trifluoromethyl)phenyl)-5,5-dimethyl-4-oxo-2-thioxoimidazolidin-1-yl)-2-fluorophenoxy)ethyl)piperidin-1-yl)-N-(3-(2,6-dioxopiperidin-3-ylamino)phenyl)acetamide]
Y (lowest measured AR level normalized to DMSO control): ** (25%<Y<=35%)
DC50: 100 to 500 nM

CCc1cc(N2C(=S)N(c3cnc(C#N)c(C(F)(F)F)c3)C(=O)C2(C)C)ccc1OCCC1CCN(CC(=O)Nc2cc(C#N)cc(NC3CCC(=O)NC3=O)c2)CC1 (centres unmarked) [Cmpd 39, N-(3-cyano-5-(2,6-dioxopiperidin-3-ylamino)phenyl)-2-(4-(2-(4-(3-(6-cyano-5-(trifluoromethyl)pyridin-3-yl)-5,5-dimethyl-4-oxo-2-thioxoimidazolidin-1-yl)-2-ethylphenoxy)ethyl)piperidin-1-yl)acetamide]
Y (lowest measured AR level normalized to DMSO control): ** (25%<Y<=35%)
DC50: < 100 nM

CC1(C)C(=O)N(c2ccc(C#N)c(C(F)(F)F)c2)C(=S)N1c1ccc(OCCC2CCN(CC(=O)Nc3cccc(NC4CCC(=O)NC4=O)c3)CC2)c(CCF)c1 (centres unmarked) [Cmpd 48, 2-(4-(2-(4-(3-(4-cyano-3-(trifluoromethyl)phenyl)-5,5-dimethyl-4-oxo-2-thioxoimidazolidin-1-yl)-2-(2-fluoroethyl)phenoxy)ethyl)piperidin-1-yl)-N-(3-(2,6-dioxopiperidin-3-ylamino)phenyl)acetamide]
Y (lowest measured AR level normalized to DMSO control): * (0<Y<=25%)
DC50: < 100 nM
